Assay results from patent US9944602B2, “Piperidinone herbicides” (E. I. DU PONT DE NEMOURS AND COMPANY, priority 2014, dated 2018).

What was measured:
Assay type in all cases: in vivo
[1] = test system: barnyardgrass (Echinochloa crus-galli); experiment: Test A preemergence barnyardgrass; conditions: 0 to 100 scale, 0 no effect, 100 complete control
Method in brief: (§1)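 Both application timings used the same loam-and-sand medium and the same solvent–surfactant formulation. Postemergence plants were 2–10 cm at the one- to two-leaf stage. After roughly 10 d of greenhouse growth, injury was judged visually against untreated plants, where 0 is no effect and 100 complete control.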

corn (Zea mays) = experiment: Test A postemergence corn; conditions: 0 to 100 scale, 0 is no effect, 100 is complete control
Method in brief: as §1

[2] = test system: barnyardgrass (Echinochloa crus-galli); experiment: Test A postemergence barnyardgrass; conditions: 0 to 100 scale, 0 is no effect, 100 is complete control
Method in brief: as §1

kochia (Kochia scoparia) [3] = experiment: Test A postemergence kochia; conditions: 0 to 100 scale, 0 is no effect, 100 is complete control
Method in brief: as §1

rice (Oryza sativa) [4] = experiment: Test B flooded paddy test rice; conditions: Table B, Flood, 500 g ai/ha, scale 0 to 100
Method in brief: (§2)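 Test pots carrying 2-leaf-stage seedlings were flooded to 3 cm above the soil surface when treated. Compound went directly into the standing water. Plants stayed in the greenhouse at that depth for 13 to 15 d before visual comparison with controls.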

rice (Oryza sativa) [5] = experiment: Test C flooded paddy test rice; conditions: Table C, Flood, scale 0 to 100
Source text: (§3) Plant species in the flooded paddy test consisted of rice (Oryza sativa), sedge, umbrella (small-flower umbrella sedge, Cyperus difformis), ducksalad (Heteranthera limosa), and barnyardgrass (Echinochloa crus-galli) grown to the 2-leaf stage for testing. At time of treatment, test pots were flooded to 3 cm above the soil surface, treated by application of test compounds directly to the paddy water, and then maintained at that water depth for the duration of the test. Treated plants and controls were maintained in a greenhouse for 13 to 15 d, after which time all species were compared to controls and visually evaluated. Plant response ratings, summarized in Table C, are based on a scale of 0 to 100 where 0 is no effect and 100 is complete control. A dash (-) response means no test result.

[6] = test system: sedge, umbrella (small-flower umbrella sedge, Cyperus difformis); experiment: Test C flooded paddy test sedge, umbrella; conditions: Table C, Flood, scale 0 to 100
Source text: as §3

[7] = test system: ducksalad (Heteranthera limosa); experiment: Test B flooded paddy test ducksalad; conditions: Table B, Flood, 500 g ai/ha, scale 0 to 100
Method in brief: as §2

[8] = test system: pigweed (Amaranthus retroflexus); experiment: Test A preemergence pigweed; conditions: 0 to 100 scale, 0 no effect, 100 complete control
Method in brief: as §1

[9] = test system: pigweed (Amaranthus retroflexus); experiment: Test A postemergence pigweed; conditions: 0 to 100 scale, 0 is no effect, 100 is complete control
Method in brief: as §1

[10] = test system: barnyardgrass (Echinochloa crus-galli); experiment: Test B flooded paddy test barnyardgrass; conditions: Table B, Flood, 500 g ai/ha, scale 0 to 100
Method in brief: as §2

[11] = test system: ryegrass, Italian (Italian ryegrass, Lolium multiflorum); experiment: Test A preemergence ryegrass, Italian; conditions: 0 to 100 scale, 0 no effect, 100 complete control
Method in brief: as §1

[12] = test system: ragweed (common ragweed, Ambrosia elatior); experiment: Test A preemergence ragweed; conditions: 0 to 100 scale, 0 no effect, 100 complete control
Method in brief: as §1

[13] = test system: ryegrass, Italian (Italian ryegrass, Lolium multiflorum); experiment: Test A postemergence ryegrass, Italian; conditions: 0 to 100 scale, 0 is no effect, 100 is complete control
Method in brief: as §1

[14] = test system: sedge, umbrella (small-flower umbrella sedge, Cyperus difformis); experiment: Test B flooded paddy test sedge, umbrella; conditions: Table B, Flood, 500 g ai/ha, scale 0 to 100
Method in brief: as §2

kochia (Kochia scoparia) [15] = experiment: Test A preemergence kochia; conditions: 0 to 100 scale, 0 no effect, 100 complete control
Method in brief: as §1

[16] = test system: blackgrass (Alopecurus myosuroides); experiment: Test A postemergence blackgrass; conditions: 0 to 100 scale, 0 is no effect, 100 is complete control
Method in brief: as §1

[17] = test system: galium (catchweed bedstraw, Galium aparine); experiment: Test A postemergence galium; conditions: 0 to 100 scale, 0 is no effect, 100 is complete control
Method in brief: as §1

[18] = test system: wheat (Triticum aestivum); experiment: Test A postemergence wheat; conditions: 0 to 100 scale, 0 is no effect, 100 is complete control
Method in brief: as §1

[19] = test system: barnyardgrass (Echinochloa crus-galli); experiment: Test C flooded paddy test barnyardgrass; conditions: Table C, Flood, scale 0 to 100
Source text: as §3

[20] = test system: foxtail, giant (giant foxtail, Setaria faberii); experiment: Test A postemergence foxtail, giant; conditions: 0 to 100 scale, 0 is no effect, 100 is complete control
Method in brief: as §1

[21] = test system: ragweed (common ragweed, Ambrosia elatior); experiment: Test A postemergence ragweed; conditions: 0 to 100 scale, 0 is no effect, 100 is complete control
Method in brief: as §1

[22] = test system: ducksalad (Heteranthera limosa); experiment: Test C flooded paddy test ducksalad; conditions: Table C, Flood, scale 0 to 100
Source text: as §3

[23] = test system: foxtail, giant (giant foxtail, Setaria faberii); experiment: Test A preemergence foxtail, giant; conditions: 0 to 100 scale, 0 no effect, 100 complete control
Method in brief: as §1

SMILES: O=C1NCCC(c2cccc(C(F)(F)F)c2)C1C(=O)Nc1ccc(F)c(F)c1F (racemic) [Compound 28]
- Barnyardgrass plant response rating ([1]; 125 g ai/ha): 90
- Barnyardgrass plant response rating ([1]; 500 g ai/ha): 90
- Plant response rating, Corn (corn (Zea mays); 125 g ai/ha): 30
- Plant response rating, Corn (corn (Zea mays); 500 g ai/ha): 60
- Plant response rating, Barnyardgrass ([2]; 125 g ai/ha): 60
- Plant response rating, Barnyardgrass ([2]; 500 g ai/ha): 80
- Plant response rating, Kochia (kochia (Kochia scoparia) [3]; 125 g ai/ha): 0
- Plant response rating, Kochia (kochia (Kochia scoparia) [3]; 500 g ai/ha): 0
- Plant response rating (rice (Oryza sativa) [4]): 15
- Plant response rating (rice (Oryza sativa) [5]; 31 g ai/ha): 0
- Plant response rating (rice (Oryza sativa) [5]; 62 g ai/ha): 0
- Plant response rating (rice (Oryza sativa) [5]; 125 g ai/ha): 0
- Plant response rating (rice (Oryza sativa) [5]; 250 g ai/ha): 0
- Plant response rating ([6]; 31 g ai/ha): 0
- Plant response rating ([6]; 62 g ai/ha): 0
- Plant response rating ([6]; 125 g ai/ha): 0
- Plant response rating ([6]; 250 g ai/ha): 0
- Plant response rating [7]: 85
- Pigweed plant response rating ([8]; 125 g ai/ha): 0
- Pigweed plant response rating ([8]; 500 g ai/ha): 20
- Plant response rating, Pigweed ([9]; 125 g ai/ha): 0
- Plant response rating, Pigweed ([9]; 500 g ai/ha): 0
- Plant response rating [10]: 100
- Ryegrass, Italian plant response rating ([11]; 125 g ai/ha): 20
- Ryegrass, Italian plant response rating ([11]; 500 g ai/ha): 40
- Ragweed plant response rating ([12]; 125 g ai/ha): 0
- Ragweed plant response rating ([12]; 500 g ai/ha): 0
- Plant response rating, Ryegrass, Italian ([13]; 125 g ai/ha): 0
- Plant response rating, Ryegrass, Italian ([13]; 500 g ai/ha): 0
- Plant response rating [14]: 0
- Kochia plant response rating (kochia (Kochia scoparia) [15]; 125 g ai/ha): 20
- Kochia plant response rating (kochia (Kochia scoparia) [15]; 500 g ai/ha): 20
- Plant response rating, Blackgrass ([16]; 125 g ai/ha): 0
- Plant response rating, Blackgrass ([16]; 500 g ai/ha): 20
- Plant response rating, Galium ([17]; 125 g ai/ha): 0
- Plant response rating, Galium ([17]; 500 g ai/ha): 0
- Plant response rating, Wheat ([18]; 125 g ai/ha): 0
- Plant response rating, Wheat ([18]; 500 g ai/ha): 20
- Plant response rating ([19]; 31 g ai/ha): 60
- Plant response rating ([19]; 62 g ai/ha): 65
- Plant response rating ([19]; 125 g ai/ha): 70
- Plant response rating ([19]; 250 g ai/ha): 75
- Plant response rating, Foxtail, Giant ([20]; 125 g ai/ha): 70
- Plant response rating, Foxtail, Giant ([20]; 500 g ai/ha): 90
- Plant response rating, Ragweed ([21]; 125 g ai/ha): 0
- Plant response rating, Ragweed ([21]; 500 g ai/ha): 0
- Plant response rating ([22]; 31 g ai/ha): 45
- Plant response rating ([22]; 62 g ai/ha): 50
- Plant response rating ([22]; 125 g ai/ha): 60
- Plant response rating ([22]; 250 g ai/ha): 70
- Foxtail, Giant plant response rating ([23]; 125 g ai/ha): 90
- Foxtail, Giant plant response rating ([23]; 500 g ai/ha): 90
